One molecule from patent US20250346571A1, “BICYCLIC DERIVATIVE PARP INHIBITOR AND USE THEREOF” (XIZANG HAISCO PHARMACEUTICAL CO., LTD., priority 2022, published 2025) can be followed below.

For orientation: AUC(0-t) means exposure summed from dosing to a finite time, without extrapolation to infinity. Higher therefore signals high exposure. One may read the clearance as a measure of how efficiently the substance is removed, as volume per time. High values mean a high capacity for elimination, low ones a low capacity for elimination. As usually defined, the bioavailability is the share of a dose that reaches the circulation, judged against a reference dose that is usually intravenous. The low end stands for poor availability, the high end for good availability.

A short description of the series: Pharmacokinetic test in beagle dogs. Format: in vivo. As for the experimental part: 5.1 Experimental animal: male beagle dogs, about 8-11 kg, 6 beagle dogs/compound, purchased from Beijing Marshall Biotechnology Co., Ltd.
5.2 Test method: on the day of the experiment, 6 beagle dogs were randomly grouped according to their body weights. The animals were fasted with water available for 12 to 14 h one day before the administration and were fed 4 h after the administration. The administration was performed according to Table 7.
Before and after the administration, 1 ml of blood was taken from the jugular veins or limb veins, and placed in an EDTAK2 centrifuge tube. The blood was centrifuged at 5000 rpm and 4° C. for 10 min to collect plasma. The blood collection time points for the intravenous administration group and intragastric administration group were 0, 5 min, 15 min, 30 min, 1 h, 2 h, 4 h, 6 h, 8 h, 10 h, 12 h, 24 h and 48 h. Before analysis and detection, all samples were stored at −80° C. The samples were analyzed quantitatively by LC-MS/MS.

Where [1] appears, read: male, dog, iv, beagle dogs, i.v. (0.2 mg/kg), plasma.

In the case of `O=C(NC1CC1)c1ccc(N2CCN(Cc3ccc4nc(C(F)F)c(=O)[nH]c4c3F)CC2)c(F)n1` [Compound 12, N-cyclopropyl-5-(4-((2-(difluoromethyl)-5-fluoro-3-oxo-3,4-dihydroquinoxalin-6-yl)methyl)piperazin-1-yl)-6-fluoropicolinamide], the “pharmacokinetic characteristics in dogs” value (conclusion in words) is “good pharmacokinetic characteristics”. Under setting [1], this molecule gave an AUC(0-t) of 1950 ± 474 ng·h/mL and a clearance of 3.47 ± 0.98 mL/min/kg. Where the note is “male, dog, iv, beagle dogs, i.v. (0.2 mg/kg), plasma, read-out: Vdss”, the Vd is 1.52 ± 0.45 L/kg. Further, under “male, dog, plasma, po, beagle dogs, i.g. (3 mg/kg)”, the bioavailability is no less than 98%. Also, under “male, dog, po, beagle dogs, i.g. (3 mg/kg), plasma”, the AUC(0-t) was determined as 19000 ± 2890 ng·h/mL.
